The record followed here is US11254686B1 (Corvus Pharmaceuticals, Inc., priority 2017, dated 2022).

Structures are written as SMILES.

Common to all, as to type: biochemical
In one experiment the target is adenosine A1 receptor (Homo sapiens (Human), UniProt P30542). Nature of the experiment: A1 cAMP IC50 assay (Table 1).
A further experiment addresses adenosine A2B receptor (Homo sapiens (Human), UniProt P29275). Nature of the experiment: Adenosine receptor activity assay (Table 1), A2B activity. Particulars: for Ratio: A2A activity to A2B activity (A2A/A2B); for IC50: read-out: Ave A2B cAMP IC50.
A further experiment has as its target adenosine A2A receptor (Homo sapiens (Human), UniProt P29274). In words: Adenosine receptor activity assay (Table 1), A2A activity. Particulars: read-out: Ave A2A cAMP IC50.
For the next experiment, the target named is adenosine A3 receptor (Homo sapiens (Human), UniProt P0DMS8). Nature of the experiment: A3 cAMP IC50 assay (Table 1).
Chain of adenosine A3 receptor (P0DMS8 whole entry): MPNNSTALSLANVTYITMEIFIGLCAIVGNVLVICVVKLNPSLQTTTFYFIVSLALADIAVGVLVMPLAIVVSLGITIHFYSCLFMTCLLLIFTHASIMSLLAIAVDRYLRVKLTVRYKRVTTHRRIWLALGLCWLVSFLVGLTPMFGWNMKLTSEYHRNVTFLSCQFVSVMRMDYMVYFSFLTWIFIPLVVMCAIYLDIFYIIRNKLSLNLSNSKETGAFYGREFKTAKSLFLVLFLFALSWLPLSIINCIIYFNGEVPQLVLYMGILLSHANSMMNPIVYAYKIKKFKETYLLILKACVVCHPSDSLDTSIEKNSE

Chain of adenosine A2B receptor (P29275 whole entry): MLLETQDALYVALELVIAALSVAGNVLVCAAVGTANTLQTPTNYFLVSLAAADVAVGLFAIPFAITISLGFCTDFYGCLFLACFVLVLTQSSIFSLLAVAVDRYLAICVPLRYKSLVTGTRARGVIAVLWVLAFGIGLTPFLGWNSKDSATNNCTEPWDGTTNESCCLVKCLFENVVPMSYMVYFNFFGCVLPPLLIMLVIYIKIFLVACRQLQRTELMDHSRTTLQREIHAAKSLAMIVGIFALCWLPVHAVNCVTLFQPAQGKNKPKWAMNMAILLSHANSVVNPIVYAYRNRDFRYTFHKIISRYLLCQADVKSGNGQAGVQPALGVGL
Chain of adenosine A1 receptor (P30542 whole entry): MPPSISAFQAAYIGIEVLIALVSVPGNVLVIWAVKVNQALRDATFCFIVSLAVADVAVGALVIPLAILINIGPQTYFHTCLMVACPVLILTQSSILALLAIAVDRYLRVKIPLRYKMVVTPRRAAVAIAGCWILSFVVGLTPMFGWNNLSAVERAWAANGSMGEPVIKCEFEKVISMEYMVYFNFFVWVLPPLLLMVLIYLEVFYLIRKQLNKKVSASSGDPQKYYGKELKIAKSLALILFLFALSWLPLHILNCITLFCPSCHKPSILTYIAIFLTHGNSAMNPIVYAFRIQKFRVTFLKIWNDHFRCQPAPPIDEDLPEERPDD
Chain of adenosine A2A receptor (P29274 whole entry): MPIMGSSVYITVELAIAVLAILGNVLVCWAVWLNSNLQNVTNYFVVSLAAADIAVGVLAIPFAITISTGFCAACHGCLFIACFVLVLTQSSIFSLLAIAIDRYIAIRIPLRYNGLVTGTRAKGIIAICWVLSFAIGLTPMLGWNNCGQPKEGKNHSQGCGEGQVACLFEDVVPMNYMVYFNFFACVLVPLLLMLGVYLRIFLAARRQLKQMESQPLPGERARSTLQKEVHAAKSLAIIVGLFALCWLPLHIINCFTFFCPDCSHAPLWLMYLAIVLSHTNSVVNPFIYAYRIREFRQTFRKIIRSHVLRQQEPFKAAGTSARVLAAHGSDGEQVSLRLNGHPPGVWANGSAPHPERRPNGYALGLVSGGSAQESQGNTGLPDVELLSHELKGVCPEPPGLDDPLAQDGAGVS

One may read the IC50 as the concentration that inhibits the measured activity by half. With `C[C@H](Nc1nc(C(=O)N2CCC2)c2sccc2n1)c1cccc(F)c1` [Example Z128, (S)-Azetidin-1-yl(2-((1-(3-fluorophenyl)ethyl)amino)thieno[3,2-d]pyrimidin-4-yl)methanone], the IC50 is above 500 nM on adenosine A1 receptor, below 10 nM at adenosine A2B receptor, 50 to 100 nM at adenosine A2A receptor and above 500 nM against adenosine A3 receptor. The Ratio at adenosine A2B receptor is given as 32.43.

Regarding `C[C@H](Nc1nc(C(=O)N2CC[C@@H](O)C2)c2sccc2n1)c1cccc(F)c1` [Example Z132, (2-(((S)-1-(3-Fluorophenyl)ethyl)amino)thieno[3,2-d]pyrimidin-4-yl)((R)-3-hydroxypyrrolidin-1-yl)methanone], the IC50 on adenosine A1 receptor is above 500 nM; at adenosine A2B receptor, below 10 nM; at adenosine A2A receptor, 100 to 500 nM; at adenosine A3 receptor it was above 500 nM. Further, the Ratio on adenosine A2B receptor worked out at 20.13.

Consider `C[C@H](Nc1nc(C(=O)N[C@H]2CCN(C(=O)OC(C)(C)C)C2)c2sccc2n1)c1ccccn1` [Example Z143, tert-Butyl (S)-3-(2-(((S)-1-(pyridin-2-yl)ethyl)amino)thieno[3,2-d]pyrimidine-4-carboxamido)pyrrolidine-1-carboxylate], for which the IC50 is above 500 nM on adenosine A1 receptor, 50 to 100 nM on adenosine A2B receptor, 10 to 50 nM at adenosine A2A receptor and 10 to 50 nM against adenosine A3 receptor. Besides, the Ratio on adenosine A2B receptor was 0.44.

For the compound `COCCNC(=O)c1nc(N[C@@H](C)c2ccccn2)nc2ccsc12` [Example Z144, (S)—N-(2-Methoxyethyl)-2-((1-(pyridin-2-yl)ethyl)amino)thieno[3,2-d]pyrimidine-4-carboxamide], the IC50 against adenosine A1 receptor is above 500 nM; at adenosine A2B receptor, 10 to 50 nM; on adenosine A2A receptor, 50 to 100 nM; against adenosine A3 receptor it was 50 to 100 nM. Also, on adenosine A2B receptor, the Ratio is 1.52.

Consider `CNc1cc2nc(N[C@@H](C)c3cccnc3)nc(C(=O)N3CCC3)c2s1` [Example Z153, (S)-Azetidin-1-yl(6-(methylamino)-2-((1-(pyridin-3-yl)ethyl)amino)thieno[3,2-d]pyrimidin-4-yl)methanone], for which the IC50 is above 500 nM at adenosine A1 receptor, below 10 nM at adenosine A2B receptor, 100 to 500 nM on adenosine A2A receptor and 50 to 100 nM at adenosine A3 receptor. Also, the Ratio on adenosine A2B receptor is on record as 46.65.

Consider `C[C@H](Nc1nc(C(=O)N[C@H]2C[C@@H](O)C2)c2sccc2n1)c1ccccn1` [Example Z158, N-((1s,3R)-3-Hydroxycyclobutyl)-2-(((S)-1-(pyridin-2-yl)ethyl)amino)thieno[3,2-d]pyrimidine-4-carboxamide], for which the IC50 at adenosine A1 receptor was 100 to 500 nM; at adenosine A2B receptor, below 10 nM; on adenosine A2A receptor it was 10 to 50 nM; against adenosine A3 receptor, above 500 nM.

For the compound `C[C@H](Nc1nc(C(=O)N[C@H]2C[C@H](O)C2)c2sccc2n1)c1ccccn1` [Example Z159, N-((1r,3S)-3-Hydroxycyclobutyl)-2-(((S)-1-(pyridin-2-yl)ethyl)amino)thieno[3,2-d]pyrimidine-4-carboxamide], the IC50 against adenosine A1 receptor is above 500 nM; at adenosine A2B receptor, 10 to 50 nM; on adenosine A2A receptor, 100 to 500 nM; against adenosine A3 receptor, above 500 nM. Also, the Ratio at adenosine A2B receptor is listed as 5.18.

For `CNc1cc2nc(NCc3ccccn3)nc(C(=O)N3CCCC3)c2s1` [Example Z160, (6-(Methylamino)-2-((pyridin-2-ylmethyl)amino)thieno[3,2-d]pyrimidin-4-yl)(pyrrolidin-1-yl)methanone], the IC50 on adenosine A1 receptor was above 500 nM; at adenosine A2B receptor it was 10 to 50 nM; at adenosine A2A receptor, above 500 nM; on adenosine A3 receptor it was 50 to 100 nM. For the same compound, the Ratio at adenosine A2B receptor was found to be 22.65.

For `CNc1cc2nc(N[C@@H](C)c3cccnc3)nc(C(=O)N3CC[C@@H](F)C3)c2s1` [Example Z161, ((R)-3-Fluoropyrrolidin-1-yl)(6-(methylamino)-2-(((S)-1-(pyridin-3-yl)ethyl)amino)thieno[3,2-d]pyrimidin-4-yl)methanone], the IC50 at adenosine A1 receptor is above 500 nM; at adenosine A2B receptor, below 10 nM; at adenosine A2A receptor, 100 to 500 nM; against adenosine A3 receptor it was 50 to 100 nM. Moreover, at adenosine A2B receptor, the Ratio amounted to 29.83.

For `C[C@H](Nc1nc(C(=O)NC[C@@H](C)O)c2sccc2n1)c1ccccn1` [Example Z162, N—((R)-2-Hydroxypropyl)-2-(((S′)-1-(pyridin-2-yl)ethyl)amino)thieno[3,2-d]pyrimidine-4-carboxamide], the IC50 on adenosine A1 receptor was above 500 nM; on adenosine A2B receptor it was 10 to 50 nM; on adenosine A2A receptor, 100 to 500 nM; against adenosine A3 receptor, above 500 nM. Further, the Ratio at adenosine A2B receptor is on record as 5.97.

Consider `C[C@H](O)CNC(=O)c1nc(N[C@@H](C)c2ccccn2)nc2ccsc12` [Example Z163, N—((S)-2-Hydroxypropyl)-2-(((S)-1-(pyridin-2-yl)ethyl)amino)thieno[3,2-d]pyrimidine-4-carboxamide], for which the IC50 against adenosine A1 receptor is above 500 nM; on adenosine A2B receptor it was 50 to 100 nM; at adenosine A2A receptor, 100 to 500 nM; against adenosine A3 receptor, above 500 nM. Besides, the Ratio on adenosine A2B receptor worked out at 4.38.

On to `CC(C)(C)OC(=O)N[C@@H]1CCN(C(=O)c2nc(NCc3cc(F)cc(F)c3)nc3ccsc23)C1` [Example Z167, tert-Butyl (R)-(1-(2-((3,5-difluorobenzyl)amino)thieno[3,2-d]pyrimidine-4-carbonyl)pyrrolidin-3-yl)carbamate], for which the IC50 against adenosine A1 receptor is above 500 nM; on adenosine A2B receptor, 10 to 50 nM; at adenosine A2A receptor, 100 to 500 nM; against adenosine A3 receptor it was 50 to 100 nM. Moreover, the Ratio on adenosine A2B receptor is reported as 16.55.

In the case of `CCOc1ccc(CNC(=O)c2nc(N[C@@H](C)c3ccccn3)nc3ccsc23)cn1` [Example Z170, (S)—N-((6-ethoxypyridin-3-yl)methyl)-2-((1-(pyridin-2-yl)ethyl)amino)thieno[3,2-d]pyrimidine-4-carboxamide], the IC50 on adenosine A1 receptor was 100 to 500 nM; on adenosine A2B receptor, 50 to 100 nM; on adenosine A2A receptor it was 50 to 100 nM; against adenosine A3 receptor, 100 to 500 nM. For the same compound, at adenosine A2B receptor, the Ratio was 1.24.

For `CNc1cc2nc(N[C@@H](C)c3cccnc3)nc(C(=O)N3CC[C@@H](O)C3)c2s1` [Example Z172, ((R)-3-Hydroxypyrrolidin-1-yl)(6-(methylamino)-2-(((S)-1-(pyridin-3-yl)ethyl)amino)thieno[3,2-d]pyrimidin-4-yl)methanone], the IC50 on adenosine A1 receptor was above 500 nM; on adenosine A2B receptor it was 50 to 100 nM; on adenosine A2A receptor it was above 500 nM; at adenosine A3 receptor, above 500 nM. For the same compound, at adenosine A2B receptor, the Ratio is 54.37.

Regarding `CNc1cc2nc(N[C@@H](C)c3ccccn3)nc(C(=O)N3CCC3)c2s1` [Example Z173, (S)-Azetidin-1-yl(6-(methylamino)-2-((1-(pyridin-2-yl)ethyl)amino)thieno[3,2-d]pyrimidin-4-yl)methanone], the IC50 is above 500 nM on adenosine A1 receptor, below 10 nM at adenosine A2B receptor, 100 to 500 nM at adenosine A2A receptor and 50 to 100 nM on adenosine A3 receptor. Also, the Ratio on adenosine A2B receptor is 45.26.

Consider `CNc1cc2nc(N[C@@H](C)c3ccccn3)nc(C(=O)N3CC[C@@H](F)C3)c2s1` [Example Z175, ((R)-3-fluoropyrrolidin-1-yl)(6-(methylamino)-2-(((S)-1-(pyridin-2-yl)ethyl)amino)thieno[3,2-d]pyrimidin-4-yl)methanone], for which the IC50 is above 500 nM on adenosine A1 receptor, below 10 nM on adenosine A2B receptor, 100 to 500 nM on adenosine A2A receptor and 50 to 100 nM on adenosine A3 receptor. Besides, the Ratio at adenosine A2B receptor is reported as 22.59.

Take `CNc1cc2nc(N[C@@H](C)c3ccccn3)nc(C(=O)N3CC[C@@H](O)C3)c2s1` [Example Z176, ((R)-3-Hydroxypyrrolidin-1-yl)(6-(methylamino)-2-(((S)-1-(pyridin-2-yl)ethyl)amino)thieno[3,2-d]pyrimidin-4-yl)methanone]: the IC50 was above 500 nM at adenosine A1 receptor, 10 to 50 nM on adenosine A2B receptor, above 500 nM on adenosine A2A receptor and 50 to 100 nM against adenosine A3 receptor. For the same compound, the Ratio at adenosine A2B receptor is given as 27.44.

In the case of `O=C(NC1CCC1)c1nc(NCc2cc(F)cc(F)c2)nc2ccsc12` [Example Z177, N-Cyclobutyl-2-((3,5-difluorobenzyl)amino)thieno[3,2-d]pyrimidine-4-carboxamide], the IC50 was 50 to 100 nM against adenosine A1 receptor, 10 to 50 nM on adenosine A2B receptor, 50 to 100 nM at adenosine A2A receptor and above 500 nM on adenosine A3 receptor. The Ratio on adenosine A2B receptor came out at 7.01.

Regarding `C[C@H](Nc1nc(C(=O)NC2CCCC2)c2sccc2n1)c1ccccn1` [Example Z180, (S)—N-Cyclopentyl-2-((1-(pyridin-2-yl)ethyl)amino)thieno[3,2-d]pyrimidine-4-carboxamide], the IC50 is 100 to 500 nM at adenosine A1 receptor, 10 to 50 nM on adenosine A2B receptor, 10 to 50 nM on adenosine A2A receptor and 100 to 500 nM at adenosine A3 receptor. Moreover, the Ratio at adenosine A2B receptor is 1.80.

Take `O=C(NC1CC(O)C1)c1nc(NCc2cncc(F)c2)nc2ccsc12` (centres unmarked) [Example Z184, 2-(((5-Fluoropyridin-3-yl)methyl)amino)-N-((1r,3r)-3-hydroxycyclobutyl)thieno[3,2-d]pyrimidine-4-carboxamide]: the IC50 at adenosine A1 receptor is above 500 nM; at adenosine A2B receptor, 10 to 50 nM; at adenosine A2A receptor, above 500 nM; against adenosine A3 receptor, above 500 nM. The Ratio on adenosine A2B receptor is 25.53.

Regarding `CNc1cc2nc(N[C@@H](C)c3cccnc3)nc(C(=O)N3CC[C@H](F)C3)c2s1` [Example Z187, ((S)-3-Fluoropyrrolidin-1-yl)(6-(methylamino)-2-(((S)-1-(pyridin-3-yl)ethyl)amino)thieno[3,2-d]pyrimidin-4-yl)methanone], the IC50 is above 500 nM against adenosine A1 receptor, below 10 nM at adenosine A2B receptor, 100 to 500 nM at adenosine A2A receptor and 50 to 100 nM against adenosine A3 receptor. Besides, the Ratio at adenosine A2B receptor is given as 48.67.
